According to US6713509B1, “Controlled release formulation for treating COPD” (SmithKline Beecham Corporation, priority 1999, dated 2004):

How the values were obtained:
[1] = stability of Carbopol-based controlled release tablet versus moisture level; format: physicochemical; conditions: moisture removed from the system
Description: Low moisture levels in certain Carbopol-based controlled release preparations may compromise the stability of the active ingredient cis-4-cyano-4-[3-(cyclopentyloxy)-4-methoxyphenyl]cyclohexane-1-carboxylic acid. High moisture levels may compromise the release rate of such formulations.
It is not known why this occurs when the moisture level is below 0.5% nor is it known how to stop this from occuring, other than to maintain the specified levels of hydration.
The technique for measuring moisture level in this representative tablet was as follows:
The analysis was performed using a Omnimark MARK2 Moisture Analyzer. The Unit determines the moisture content using Infrared heat to dry the sample at a programmed temperature of 120° Celsius with a standby temperature of 80° Celsius. It calculates the percent loss on drying from the initial weight and the final weight of the sample. The results are printed out as % w/w automatically when the analysis is finished. The analysis usually takes 2 to 3 minutes for one measurement of a sample with a moisture level of less than 1.5%w/w.

PDE 4 = assay: IC50 ratio (high/low affinity rolipram binding forms of PDE 4); format: biochemical; conditions: IC50 for competing with 1 nM [3H]R-rolipram binding (high affinity form) over IC50 for PDE 4 catalytic activity (low affinity form), 1 uM [3H]-cAMP
Description: This invention covers controlled release formulations which contain a PDE 4 inhibitor, particularly an inhibitor that is specific for PDE 4. A preferred group of inhibitors are those that have an IC50 ratio (high/low binding) of about 0.1 or greater as further described in co-pending U.S. application Ser. No. 08/456,274, now U.S. Pat. No. 6,143,782 and its published counter-part PCT application serial number published Jan. 05, 1995 as WO95/00139; this application is incorporated herein in full by reference as if fully set forth herein. A preferred standard for PDE 4-specific inhibitors which can be used in this invention is one where the compound has an IC50 ratio of about 0.1 or greater; said ratio being the ratio of the IC50 value for competing with the binding of 1 nM of [^3H]R-rolipram to a form of PDE 4 which binds rolipram with a high affinity over the IC50 value for inhibiting the PDE 4 catalytic activity of a form which binds rolipram with a low affinity using 1 uM[^3H]-cAMP as the substrate.

[2] = oral administration of the PDE4 inhibitor in COPD: effect and side effects; format: in vivo

Structure (SMILES): COc1ccc([C@]2(C#N)CC[C@@H](C(=O)O)CC2)cc1OC1CCCC1 [cis-4-cyano-4-[3-(cyclopentyloxy)-4-methoxyphenyl]cyclohexane-1-carboxylic acid]
- stability in combination with dibasic calcium phosphate (anhydrous) [1]: appears to be unstable when moisture is removed from the system
- therapeutic ratio (IC50 ratio high/low binding) (PDE 4): greater than 0.1
- therapeutic effect in COPD ([2]; administered orally, at certain doses): achieve an effective therapeutic effect in COPD at certain doses
- side effects ([2]; as blood levels increase with increased levels of dosing): undesirable side effects such as those attributed to CNS activity begin to be manifested
